Data published in US20090081120A1, “Methods and Compositions for Increasing Patient Tolerability During Myocardial Imaging Methods” (CV Therapeutics, Inc., priority 2006, published 2009).

Tests used:
conscious dogs [1] = assay: Regadenoson-induced coronary vasodilation (CBF) with and without caffeine in conscious dogs; type: in vivo, dog; conditions: for change of the maximum increase in CBF induced by Regadenoson vs control: p>0.05
Protocol: (§1) Sixteen chronically instrumented male mongrel dogs weighing from 22-30 kg were used in the study. The animal protocol was approved by the Institutional Animal Care and Use Committee of New York Medical College and conforms to the Guide for the Care and Use of Laboratory Animal by the United States National Institutes of Health.
(§2) Dogs were sedated with acepromazine (0.3 mg/kg, IM) and anesthetized with pentobarbital sodium (25 mg/kg, IV). After intubation, dogs were artificially ventilated with room air. A thoracotomy was made in the fifth intercostal space using sterile techniques. A Tygon catheter (Cardiovascular Instruments, Wakefield, Mass.) was inserted into the descending thoracic aorta and another one was inserted into the left atrium. In 9 dogs, an ultrasound flow transducer (Transonic Systems, Ithaca, N.Y.) was placed around the left circumflex coronary artery. A solid-state pressure gauge (P6.5, Konisberg Instruments, Pasadena, Calif.) was placed into the left ventricle through the apex. The chest was closed in layers. The catheters and wires were tunneled subcutaneously and externalized through the skin at the back of the dog's neck. Dogs were allowed to recover from the surgery before experiments were performed, and were trained to lie on a table.
(§3) Phasic arterial pressure was measured by connecting the aortic catheter to a strain gauge transducer (P23 ID, LDS Test and Measurement, Valley View, Ohio). Left ventricular pressures were measured by the solid pressure gauge. CBF (mL/min) was measured from an ultrasound flow transducer using a Transonic flowmeter (T206, Transonic Systems, Ithaca, N.Y.). Two indices were used to describe the Regadenoson-induced coronary vasodilation: 1) the maximum increase in CBF and 2) the duration of the 2-fold increase in CBF (the period of time that CBF was elevated to a level ≧2-fold of baseline CBF). All pressure and flow data were acquired and analyzed using a Ponemah System (Version 3.30 or 4.20, LDS Test and Measurement, Valley View, Ohio). MAP and HR were calculated from phasic blood pressure, and LV dP/dtMax was calculated from the left ventricular systolic pressure.
(§4) On the day of an experiment, a dog was placed on a table, where it lay quietly during the experiment. A catheter was inserted into a peripheral vein in the leg and attached to an infusion line to administer drugs without disturbing the dog. The experiment was begun after MAP, HR and CBF were stable.
In 4 dogs, two doses of Regadenoson (5 μg/kg, IV) were given 90 min apart (without blood sampling) to determine if there is tachyphylaxis of Regadenoson-induced coronary vasodilation.
(§5) Regadenoson was supplied by CV Therapeutics, Inc. as a sterile stock solution (Lot#: 803604, 0.08 mg/mL), that was made using 15% Propylene Glycol (pH 7) and was diluted in normal saline before injection.
(§6) The statistical significance of a difference between the value of a parameter at baseline and at the indicated time point after drug administration was determined using a One-Way Repeated Measures ANOVA followed by Tukey's Test. The statistical significance of a difference between responses to Regadenoson in the absence and presence of caffeine was determined using a Two-Way Repeated Measures ANOVA followed by Tukey's Test. Results with p<0.05 were considered to be significant. A computer-based software package (SigmaStat 2.03) was used for statistical analysis. All data are presented as Mean±SEM.

normal subjects [2] = assay: Crossover PET study of regadenoson-induced myocardial blood flow (coronary flow reserve) with caffeine or placebo; type: in vivo, human
Protocol: (§7) 15O water was used as the radionuclide in the PET scans. There was a 1- to 14-day washout period between dosing days. Blood samples and measures of safety were collected until 120 minutes after study drug administration.
Open-label study drug was supplied as sterile stock solution in single-use vials each containing 5 mL of regadenoson (0.08 mg/mL). Regadenoson, 400 μg, was administered as a rapid bolus, through an iv catheter over approximately 10 seconds, followed immediately by a 5 mL saline flush.
On each of 2 study days, subjects received a single dose of regadenoson, administered intravenously as a rapid (10-second) bolus of 5 mL, followed by a 5 mL saline flush. There was a 1- to 14-day washout period between doses.
The CVT tracking number for the placebo capsules was 1341 (Leg 2).
The primary efficacy measure was the log coronary flow reserve (CFR), which is the ratio of stress MBF after regadenoson dosing to the resting MBF.
The data were also to be analyzed using Wilcoxon's rank-sum test.

conscious dogs [3] = assay: Regadenoson-induced changes in hemodynamics (MAP, HR, LVSP, LV dP/dtMax) with and without caffeine in conscious dogs; type: in vivo, dog; conditions: for increase in peak HR from baseline: p<0.05 vs control
Protocol: as §1, §2, §3, §4, §5
as §6, with “The statistical significance of a difference between responses to Regadenoson in the absence and presence of caffeine was determined using a Two-Way Repeated Measures ANOVA followed by Tukey's Test.” left out

[4] = Plasma regadenoson concentrations after IV injection in conscious dogs; conditions: effect of caffeine at 1, 2, 4 or 10 mg/kg
Protocol: Each dog received an IV injection of 5 μg/kg of Regadenoson. […] LVSP, LV dP/dtMax, MAP, HR and CBF were recorded continuously. Blood samples were taken from the left atrial catheter at 1, 3, 5, 15, 30, 45 and 60 min following injections of Regadenoson.

normal subjects [5] = assay: Safety and tolerability of regadenoson with and without prior caffeine; type: in vivo, human
Protocol: as §7
Safety measures included adverse events (AEs), serious adverse events, vital signs (HR and BP), ECG, concomitant medications, and a tolerability questionnaire. All available data from subjects who received the single dose of regadenoson were to be included in the statistical summaries.
ECG intervals and changes from baseline values in ECG intervals were to be presented, as were occurrences of rhythm or conduction abnormalities. Concomitant medication usage was to be summarized.
Tolerability questionnaire responses were to be analyzed using the Wilcoxen rank sum test (“How did you feel?” question) and the exact Cochran-Mantel-Haenszel test (Day 2—only question “How did this test compare to the first test?”).

[6] = regadenoson 400 μg IV, caffeine 200 mg po
[7] = regadenoson 5 μg/kg IV in the presence of caffeine 1 mg/kg
[8] = regadenoson 5 μg/kg IV in the presence of caffeine 2 mg/kg
[9] = caffeine 200 mg po before regadenoson 400 μg IV
[10] = after regadenoson 400 μg IV dosing
[11] = regadenoson 400 μg IV, at any time, 25/43 subjects

SMILES: Cn1c(=O)c2c(ncn2C)n(C)c1=O [Caffeine, caffeine]
- Baseline values of CBF before and after caffeine treatment (conscious dogs [1]; 45 min after 1, 2, 4, and 10 mg/kg caffeine): not significantly different
- change of the maximum increase in CBF induced by Regadenoson vs control (conscious dogs [1]; regadenoson 5 μg/kg IV 45 min after caffeine 1 mg/kg IV): 2±3%
- change of the maximum increase in CBF induced by Regadenoson vs control (conscious dogs [1]; regadenoson 5 μg/kg IV 45 min after caffeine 2 mg/kg IV): −0.7±3%
- change of the maximum increase in CBF induced by Regadenoson vs control (conscious dogs [1]; regadenoson 5 μg/kg IV 45 min after caffeine 4 mg/kg IV): −16±5%
- change of the maximum increase in CBF induced by Regadenoson vs control (conscious dogs [1]; regadenoson 5 μg/kg IV 45 min after caffeine 10 mg/kg IV): −13±8%
- change in CFR with caffeine (normal subjects [2]; caffeine 200 mg po vs placebo before regadenoson 400 μg IV): no change in CFR detected
- change in CFR (printed: not ≧20%) (normal subjects [2]; caffeine 200 mg po vs placebo before regadenoson 400 μg IV, 95% confidence): < 20%
- exponentiated lower limit of the 90% confidence interval for log CFR (caffeine versus placebo difference) (normal subjects [2]; [6]): 0.80
- exponentiated lower limit of the 95% confidence interval for log CFR (caffeine versus placebo difference) (normal subjects [2]; [6]): 0.78
- exponentiated upper limit of the 90% confidence interval for log CFR (caffeine versus placebo difference) (normal subjects [2]; [6]): 1.06
- exponentiated upper limit of the 95% confidence interval for log CFR (caffeine versus placebo difference) (normal subjects [2]; [6]): 1.08
- peak decrease in MAP from baseline (conscious dogs [3]; regadenoson 5 μg/kg IV in the presence of 4 mg/kg caffeine): 2±5%
- decrease in LVSP from control (conscious dogs [3]; regadenoson 5 μg/kg IV in the presence of 4 mg/kg of caffeine, p>0.05): 1±5%
- increase in MAP from baseline (conscious dogs [3]; regadenoson 5 μg/kg IV in the presence of 10 mg/cg caffeine, insignificant): 9±6%
- increase in LVSP from control (conscious dogs [3]; regadenoson 5 μg/kg IV in the presence of 10 mg/kg caffeine, significant): 11±7%
- decrease in LVSP from baseline (conscious dogs [3]; [7]): 9±3%
- peak decrease in MAP from baseline (conscious dogs [3]; [7]): 13±2%
- decrease in LVSP from baseline (conscious dogs [3]; [8]): 6±2%
- peak decrease in MAP from baseline (conscious dogs [3]; [8]): 13±1%
- increase in peak HR from baseline (conscious dogs [3]; [8]): 109±21%
- increase in peak HR from baseline (conscious dogs [3]; regadenoson 5 μg/kg IV in the presence of caffeine 4 mg/kg): 79±20%
- increase in peak HR from baseline (conscious dogs [3]; regadenoson 5 μg/kg IV in the presence of caffeine 10 mg/kg): 74±16%
- Pharmacokinetic profiles of Regadenoson [4]: not changed
- effect of caffeine on the severity of AEs (normal subjects [5]; [9]): attenuated
- overall incidence of AEs between the placebo and caffeine groups (normal subjects [5]; [9]): no difference
- effect of caffeine on the HR increase caused by regadenoson (normal subjects [5]; caffeine 200 mg po before regadenoson 400 μg IV, p<0.001): attenuated
- tolerability questionnaire: feeling after the caffeine test vs after the placebo test (normal subjects [5]; caffeine 200 mg po, regadenoson 400 μg IV, p<0.001): felt better
- tolerability questionnaire: comfort during the test (normal subjects [5]; test with caffeine 200 mg po vs placebo, regadenoson 400 μg IV, p<0.001): felt more comfortable

SMILES: CNC(=O)c1cnn(-c2nc(N)c3ncn([C@@H]4O[C@H](CO)[C@@H](O)[C@H]4O)c3n2)c1 [Regadenoson, (1-{9-[(4S,2R,3R,5R)-3,4-dihydroxy-5-(hydroxymethyl)oxolan-2-yl]-6-aminopurin-2-yl}pyrazol-4-yl)-N-methylcarboxamide]
- decrease in MAP (peak) from baseline (conscious dogs [3]; regadenoson 5 μg/kg IV in the absence of caffeine, baseline 102±2 mm Hg, n=9): 15±2%
- increase in HR (peak) from baseline (conscious dogs [3]; regadenoson 5 μg/kg IV without caffeine, baseline 80±4 beats/min, n=9): 114±14%
- decrease in LVSP (peak) from baseline (conscious dogs [3]; regadenoson 5 μg/kg IV without caffeine, baseline 139±5 mm Hg, n=8): 9±1%
- increase in LV dP/dtMax (peak) from baseline (conscious dogs [3]; regadenoson 5 μg/kg IV, baseline 3240±196 mm Hg/s): 65±7%
- QTc prolongation (>500 msec and change of >60 msec) by ECG analysis, not reported as AE (normal subjects [5]; [10]): one subject
- first degree AV block by ECG analysis, not reported as AE (normal subjects [5]; [10]): one subject
- subjects with sensation of heaviness (normal subjects [5]; regadenoson 400 μg IV): 28%
- subjects with paraesthesia (normal subjects [5]; regadenoson 400 μg IV, 8/43 subjects): 19%
- subjects with headache (normal subjects [5]; regadenoson 400 μg IV, 12/43 subjects): 28%
- subjects with flushing (normal subjects [5]; regadenoson 400 μg IV, 13/43 subjects): 30%
- subjects with palpitations (normal subjects [5]; regadenoson 400 μg IV, 21/43 subjects): 49%
- subjects with dyspnoea (normal subjects [5]; regadenoson 400 μg IV, 24/43 subjects): 56%
- subjects with AEs: ear and labyrinth disorders (normal subjects [5]; regadenoson 400 μg IV, at any time, 1/43 subjects): 2%
- subjects with AEs: gastrointestinal disorders (normal subjects [5]; regadenoson 400 μg IV, at any time, 2/43 subjects): 5%
- subjects with AEs: general disorders and administration site conditions (normal subjects [5]; regadenoson 400 μg IV, at any time, 11/43 subjects): 26%
- subjects with AEs: musculoskeletal and connective tissue disorders (normal subjects [5]; regadenoson 400 μg IV, at any time, 12/43 subjects): 28%
- subjects with AEs: vascular disorders (normal subjects [5]; regadenoson 400 μg IV, at any time, 13/43 subjects): 30%
- subjects with AEs: nervous system disorders (normal subjects [5]; regadenoson 400 μg IV, at any time, 18/43 subjects): 42%
- subjects with AEs: cardiac disorders (normal subjects [5]; [11]): 58%
- subjects with AEs: respiratory, thoracic and mediastinal disorders (normal subjects [5]; [11]): 58%
